Source: the kinase profiling compilation of Christmann-Franck et al. (2016)

Columns and labels:
Assay in all cases: radiometric filter-binding kinase assay
[1] = tested on: OXSR1 (human), O95747 [T185E]
PRKCG (human) = PRKCG (human) (UniProt P05129)
ABL1 (human) = ABL1 (human) (UniProt P00519); details: compound 100.0 µM
MAP2K6 (human) = MAP2K6 (human) (UniProt P52564)
TLK1 (human) = TLK1 (human) (UniProt Q9UKI8)
NUAK1 (human) = NUAK1 (human) (UniProt O60285)
STK16 (human) = STK16 (human) (UniProt O75716)
Chain of STK16 (human) (O75716 whole entry, looked up): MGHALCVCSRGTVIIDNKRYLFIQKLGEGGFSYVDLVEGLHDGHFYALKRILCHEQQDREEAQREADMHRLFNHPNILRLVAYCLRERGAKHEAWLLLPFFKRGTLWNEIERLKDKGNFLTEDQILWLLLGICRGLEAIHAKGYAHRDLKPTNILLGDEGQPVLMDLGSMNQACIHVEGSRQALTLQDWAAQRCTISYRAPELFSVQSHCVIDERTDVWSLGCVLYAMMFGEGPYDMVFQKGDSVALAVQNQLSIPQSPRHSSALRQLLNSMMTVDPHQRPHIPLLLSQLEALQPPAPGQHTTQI

TTBK1 (human) = TTBK1 (human) (UniProt Q5TCY1)
PTK6 (human) = PTK6 (human) (UniProt Q13882)
STK33 (human) = STK33 (human) (UniProt Q9BYT3)
TEK (human) = TEK (human) (UniProt Q02763)
ZAP70 (human) = ZAP70 (human) (UniProt P43403)
EIF2AK3 (human) = EIF2AK3 (human) (UniProt Q9NZJ5)
Chain of EIF2AK3 (human) (Q9NZJ5 whole entry, looked up): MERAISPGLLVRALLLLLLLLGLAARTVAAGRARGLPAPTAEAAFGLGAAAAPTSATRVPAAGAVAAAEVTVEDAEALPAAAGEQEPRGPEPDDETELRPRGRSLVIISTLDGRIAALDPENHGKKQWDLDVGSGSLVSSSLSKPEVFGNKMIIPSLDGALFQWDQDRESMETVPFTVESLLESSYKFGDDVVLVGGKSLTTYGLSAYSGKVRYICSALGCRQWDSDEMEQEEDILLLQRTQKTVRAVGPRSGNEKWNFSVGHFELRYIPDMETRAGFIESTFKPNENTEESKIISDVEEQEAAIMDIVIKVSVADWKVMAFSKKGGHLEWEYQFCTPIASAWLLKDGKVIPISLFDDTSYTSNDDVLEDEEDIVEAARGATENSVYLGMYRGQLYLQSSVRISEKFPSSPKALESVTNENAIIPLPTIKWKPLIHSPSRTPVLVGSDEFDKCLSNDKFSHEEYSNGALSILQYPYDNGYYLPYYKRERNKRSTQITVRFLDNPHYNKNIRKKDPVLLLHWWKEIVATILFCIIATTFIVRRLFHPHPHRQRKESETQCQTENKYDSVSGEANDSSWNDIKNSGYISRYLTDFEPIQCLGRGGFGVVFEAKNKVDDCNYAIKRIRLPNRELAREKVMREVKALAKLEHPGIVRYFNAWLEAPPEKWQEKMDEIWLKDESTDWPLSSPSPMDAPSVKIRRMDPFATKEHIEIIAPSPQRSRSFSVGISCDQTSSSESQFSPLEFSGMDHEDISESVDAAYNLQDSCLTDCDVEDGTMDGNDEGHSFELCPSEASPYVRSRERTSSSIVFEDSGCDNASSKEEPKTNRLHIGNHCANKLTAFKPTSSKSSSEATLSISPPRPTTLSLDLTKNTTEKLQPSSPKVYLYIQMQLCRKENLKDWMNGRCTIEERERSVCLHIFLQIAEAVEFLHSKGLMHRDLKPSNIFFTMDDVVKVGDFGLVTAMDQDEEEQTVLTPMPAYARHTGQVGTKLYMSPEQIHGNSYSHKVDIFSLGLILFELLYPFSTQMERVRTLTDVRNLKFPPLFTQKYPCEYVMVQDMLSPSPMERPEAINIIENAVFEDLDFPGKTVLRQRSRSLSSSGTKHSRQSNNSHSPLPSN

TSSK1B (human) = TSSK1B (human) (UniProt Q9BXA7)
Chain of TSSK1B (human) (Q9BXA7 whole entry, looked up): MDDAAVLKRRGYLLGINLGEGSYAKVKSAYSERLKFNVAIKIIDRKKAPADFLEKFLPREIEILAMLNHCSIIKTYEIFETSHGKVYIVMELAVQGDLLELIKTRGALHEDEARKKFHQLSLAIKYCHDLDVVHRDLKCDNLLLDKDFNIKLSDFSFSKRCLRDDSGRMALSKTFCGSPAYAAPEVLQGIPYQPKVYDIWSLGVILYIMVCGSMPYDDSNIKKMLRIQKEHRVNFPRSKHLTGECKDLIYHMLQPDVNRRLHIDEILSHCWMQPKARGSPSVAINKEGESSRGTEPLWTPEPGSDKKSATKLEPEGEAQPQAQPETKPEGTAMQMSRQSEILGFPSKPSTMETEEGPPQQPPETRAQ

TESK1 (human) = TESK1 (human) (UniProt Q15569)
Chain of TESK1 (human) (Q15569 whole entry, looked up): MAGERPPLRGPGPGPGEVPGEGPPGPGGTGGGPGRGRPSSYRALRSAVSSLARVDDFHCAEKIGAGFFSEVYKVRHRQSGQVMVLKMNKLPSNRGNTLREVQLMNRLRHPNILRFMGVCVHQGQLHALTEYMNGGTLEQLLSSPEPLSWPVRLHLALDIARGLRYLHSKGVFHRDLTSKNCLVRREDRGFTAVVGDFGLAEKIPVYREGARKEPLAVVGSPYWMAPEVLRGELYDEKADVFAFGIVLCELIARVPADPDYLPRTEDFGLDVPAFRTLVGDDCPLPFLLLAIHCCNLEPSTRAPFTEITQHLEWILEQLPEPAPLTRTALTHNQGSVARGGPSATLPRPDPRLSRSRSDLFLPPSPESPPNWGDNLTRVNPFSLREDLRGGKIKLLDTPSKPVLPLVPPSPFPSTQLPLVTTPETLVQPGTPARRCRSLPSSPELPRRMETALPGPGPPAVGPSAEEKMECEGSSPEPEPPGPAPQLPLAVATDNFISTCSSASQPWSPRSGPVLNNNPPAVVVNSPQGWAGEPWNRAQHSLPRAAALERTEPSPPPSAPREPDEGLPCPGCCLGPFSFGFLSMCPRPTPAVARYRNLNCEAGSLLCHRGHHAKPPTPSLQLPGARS

IRAK1 (human) = IRAK1 (human) (UniProt P51617)
STK24 (human) = STK24 (human) (UniProt Q9Y6E0)
CSNK1G2 (human) = CSNK1G2 (human) (UniProt P78368)
WNK1 (human) = WNK1 (human) (UniProt Q9H4A3)
DDR2 (human) = DDR2 (human) (UniProt Q16832)
Chain of DDR2 (human) (Q16832 whole entry, looked up): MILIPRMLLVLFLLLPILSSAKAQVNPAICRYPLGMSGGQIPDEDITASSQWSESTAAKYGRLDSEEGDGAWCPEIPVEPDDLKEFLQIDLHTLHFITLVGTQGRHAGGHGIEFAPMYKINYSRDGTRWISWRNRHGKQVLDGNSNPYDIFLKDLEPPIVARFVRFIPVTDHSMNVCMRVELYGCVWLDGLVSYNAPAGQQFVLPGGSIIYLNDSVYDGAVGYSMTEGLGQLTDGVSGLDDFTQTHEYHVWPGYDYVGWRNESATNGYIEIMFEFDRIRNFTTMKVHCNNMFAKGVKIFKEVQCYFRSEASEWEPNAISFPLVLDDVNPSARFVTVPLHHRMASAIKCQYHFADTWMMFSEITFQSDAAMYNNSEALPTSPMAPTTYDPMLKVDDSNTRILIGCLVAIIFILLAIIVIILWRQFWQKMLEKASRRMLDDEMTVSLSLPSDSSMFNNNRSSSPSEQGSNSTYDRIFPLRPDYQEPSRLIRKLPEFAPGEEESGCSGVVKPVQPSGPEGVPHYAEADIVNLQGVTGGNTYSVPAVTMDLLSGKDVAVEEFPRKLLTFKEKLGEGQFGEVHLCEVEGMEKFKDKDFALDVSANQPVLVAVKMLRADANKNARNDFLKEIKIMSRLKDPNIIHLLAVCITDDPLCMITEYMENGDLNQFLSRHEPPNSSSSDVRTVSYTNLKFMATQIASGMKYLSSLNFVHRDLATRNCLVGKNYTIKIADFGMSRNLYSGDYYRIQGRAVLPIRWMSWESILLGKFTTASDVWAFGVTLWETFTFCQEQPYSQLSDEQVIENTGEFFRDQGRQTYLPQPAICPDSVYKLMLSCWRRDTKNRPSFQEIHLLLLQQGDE

CDK9 CCNT1 (human) = CDK9 CCNT1 (human) (UniProt P50750+O60563)

Chain of MAP2K6 (human) (P52564 whole entry, looked up): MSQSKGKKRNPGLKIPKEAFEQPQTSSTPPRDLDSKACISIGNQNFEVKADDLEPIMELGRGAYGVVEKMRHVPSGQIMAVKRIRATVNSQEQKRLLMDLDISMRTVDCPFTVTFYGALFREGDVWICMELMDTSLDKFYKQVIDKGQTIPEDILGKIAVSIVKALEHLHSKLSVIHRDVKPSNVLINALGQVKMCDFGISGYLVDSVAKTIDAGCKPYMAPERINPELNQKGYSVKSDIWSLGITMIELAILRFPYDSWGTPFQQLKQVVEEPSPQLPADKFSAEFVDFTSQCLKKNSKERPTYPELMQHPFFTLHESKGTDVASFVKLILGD
Chain of OXSR1 (human), O95747 [T185E] (O95747 whole entry T185E, looked up): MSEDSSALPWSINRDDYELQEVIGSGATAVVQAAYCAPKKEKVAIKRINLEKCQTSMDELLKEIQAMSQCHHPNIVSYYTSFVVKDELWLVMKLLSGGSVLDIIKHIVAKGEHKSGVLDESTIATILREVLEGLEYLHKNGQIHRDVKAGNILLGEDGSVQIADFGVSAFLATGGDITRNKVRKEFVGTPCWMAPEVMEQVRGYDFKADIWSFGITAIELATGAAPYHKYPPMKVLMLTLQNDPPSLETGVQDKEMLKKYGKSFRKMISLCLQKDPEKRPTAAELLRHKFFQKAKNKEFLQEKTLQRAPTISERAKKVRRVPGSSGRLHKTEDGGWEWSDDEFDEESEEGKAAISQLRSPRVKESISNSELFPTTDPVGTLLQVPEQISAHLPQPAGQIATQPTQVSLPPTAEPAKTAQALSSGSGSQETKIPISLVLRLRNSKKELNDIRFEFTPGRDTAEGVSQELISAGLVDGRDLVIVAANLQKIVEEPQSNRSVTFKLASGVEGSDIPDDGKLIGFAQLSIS
Chain of TLK1 (human) (Q9UKI8 whole entry, looked up): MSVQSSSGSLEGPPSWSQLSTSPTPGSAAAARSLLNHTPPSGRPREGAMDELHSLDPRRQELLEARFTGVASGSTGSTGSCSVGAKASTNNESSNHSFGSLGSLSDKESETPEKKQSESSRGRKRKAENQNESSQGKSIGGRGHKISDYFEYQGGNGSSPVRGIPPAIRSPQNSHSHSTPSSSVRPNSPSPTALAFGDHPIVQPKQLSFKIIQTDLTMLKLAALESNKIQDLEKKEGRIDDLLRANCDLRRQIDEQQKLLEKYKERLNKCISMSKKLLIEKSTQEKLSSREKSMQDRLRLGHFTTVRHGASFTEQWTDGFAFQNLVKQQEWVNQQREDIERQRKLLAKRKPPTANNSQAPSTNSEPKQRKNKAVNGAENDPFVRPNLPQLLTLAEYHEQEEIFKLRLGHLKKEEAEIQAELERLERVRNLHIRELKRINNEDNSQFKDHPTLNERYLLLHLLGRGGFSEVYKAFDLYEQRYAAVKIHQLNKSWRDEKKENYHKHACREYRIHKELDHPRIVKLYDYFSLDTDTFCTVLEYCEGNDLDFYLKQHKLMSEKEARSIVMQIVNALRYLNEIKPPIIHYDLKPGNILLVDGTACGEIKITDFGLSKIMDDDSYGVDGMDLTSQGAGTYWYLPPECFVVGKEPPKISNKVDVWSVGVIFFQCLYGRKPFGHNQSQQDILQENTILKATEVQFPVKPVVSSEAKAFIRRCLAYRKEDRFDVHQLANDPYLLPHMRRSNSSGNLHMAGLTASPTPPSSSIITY

Q: Which results are given for `Cc1cc(N=Nc2cc(S(=O)(=O)O)c(C)cc2C)c(N)cc1O`?
A: residual activity ([1]; compound 100.0 µM): 97%; residual activity (PRKCG (human); compound 100.0 µM): 55%; residual activity (ABL1 (human)): 92%; residual activity (MAP2K6 (human); compound 100.0 µM): 113%; residual activity (TLK1 (human); compound 100.0 µM): 108%; residual activity (NUAK1 (human); compound 100.0 µM): 44%; residual activity (STK16 (human); compound 100.0 µM): 111%; residual activity (TTBK1 (human); compound 100.0 µM): 94%; residual activity (PTK6 (human); compound 100.0 µM): 100%; residual activity (STK33 (human); compound 100.0 µM): 107%; residual activity (TEK (human); compound 100.0 µM): 103%; residual activity (ZAP70 (human); compound 100.0 µM): 103%; residual activity (EIF2AK3 (human); compound 100.0 µM): 94%; residual activity (TSSK1B (human); compound 100.0 µM): 107%; residual activity (TESK1 (human); compound 100.0 µM): 73%; residual activity (IRAK1 (human); compound 100.0 µM): 104%

Q: With `COc1ccc(N(C(=O)Nc2c(C)cccc2C)c2cc(Nc3ccc(N4CCN(C)CC4)cc3)ncn2)c(OC)c1` as the compound, how does the residual activity ([1]; compound 0.01 µM) read?
A: 101%

Q: What about the residual activity ([1]; compound 0.1 µM) of the same compound?
A: 93%

Q: And the residual activity ([1]; compound 1.0 µM)?
A: 57%

Q: And the residual activity (STK24 (human); compound 0.01 µM)?
A: 105%

Q: What about the residual activity (STK24 (human); compound 1.0 µM) of the same compound?
A: 40%

Q: What about the residual activity (PRKCG (human); compound 0.01 µM) of the same compound?
A: 101%

Q: What about the residual activity (PRKCG (human); compound 0.1 µM) of the same compound?
A: 104%

Q: And the residual activity (PRKCG (human); compound 1.0 µM)?
A: 96%

Q: What about the residual activity (MAP2K6 (human); compound 0.1 µM) of the same compound?
A: 101%

Q: And the residual activity (MAP2K6 (human); compound 1.0 µM)?
A: 92%

Q: What about the residual activity (TLK1 (human); compound 0.01 µM) of the same compound?
A: 98%

Q: What about the residual activity (TLK1 (human); compound 0.1 µM) of the same compound?
A: 93%

Q: And the residual activity (TLK1 (human); compound 1.0 µM)?
A: 93%

Q: What about the residual activity (NUAK1 (human); compound 0.01 µM) of the same compound?
A: 97%

Q: What about the residual activity (NUAK1 (human); compound 0.1 µM) of the same compound?
A: 93%

Q: What about the residual activity (NUAK1 (human); compound 1.0 µM) of the same compound?
A: 64%

Q: What about the residual activity (STK16 (human); compound 0.01 µM) of the same compound?
A: 106%

Q: What about the residual activity (STK16 (human); compound 0.1 µM) of the same compound?
A: 106%

Q: What about the residual activity (STK16 (human); compound 1.0 µM) of the same compound?
A: 106%

Q: And the residual activity (TTBK1 (human); compound 0.01 µM)?
A: 100%

Q: What about the residual activity (TTBK1 (human); compound 0.1 µM) of the same compound?
A: 117%

Q: And the residual activity (TTBK1 (human); compound 1.0 µM)?
A: 112%

Q: And the residual activity (CSNK1G2 (human); compound 0.01 µM)?
A: 96%

Q: And the residual activity (CSNK1G2 (human); compound 0.1 µM)?
A: 93%

Q: And the residual activity (PTK6 (human); compound 0.01 µM)?
A: 97%

Q: And the residual activity (PTK6 (human); compound 0.1 µM)?
A: 24%

Q: And the residual activity (PTK6 (human); compound 1.0 µM)?
A: 3%

Q: What about the residual activity (STK33 (human); compound 0.01 µM) of the same compound?
A: 113%

Q: What about the residual activity (STK33 (human); compound 0.1 µM) of the same compound?
A: 106%

Q: And the residual activity (STK33 (human); compound 1.0 µM)?
A: 107%

Q: And the residual activity (TEK (human); compound 0.01 µM)?
A: 116%

Q: And the residual activity (TEK (human); compound 0.1 µM)?
A: 82%

Q: And the residual activity (TEK (human); compound 1.0 µM)?
A: 42%

Q: And the residual activity (ZAP70 (human); compound 0.01 µM)?
A: 96%

Q: What about the residual activity (ZAP70 (human); compound 0.1 µM) of the same compound?
A: 98%

Q: What about the residual activity (ZAP70 (human); compound 1.0 µM) of the same compound?
A: 94%

Q: What about the residual activity (WNK1 (human); compound 0.01 µM) of the same compound?
A: 100%

Q: And the residual activity (WNK1 (human); compound 0.1 µM)?
A: 107%

Q: What about the residual activity (WNK1 (human); compound 1.0 µM) of the same compound?
A: 102%

Q: What about the residual activity (DDR2 (human); compound 0.01 µM) of the same compound?
A: 17%

Q: And the residual activity (DDR2 (human); compound 0.1 µM)?
A: 8%

Q: And the residual activity (DDR2 (human); compound 1.0 µM)?
A: 6%

Q: What about the residual activity (EIF2AK3 (human); compound 0.01 µM) of the same compound?
A: 91%

Q: What about the residual activity (EIF2AK3 (human); compound 0.1 µM) of the same compound?
A: 97%

Q: And the residual activity (EIF2AK3 (human); compound 1.0 µM)?
A: 95%

Q: What about the residual activity (TSSK1B (human); compound 0.01 µM) of the same compound?
A: 108%

Q: What about the residual activity (TSSK1B (human); compound 0.1 µM) of the same compound?
A: 102%

Q: And the residual activity (TSSK1B (human); compound 1.0 µM)?
A: 62%

Q: What about the residual activity (TESK1 (human); compound 0.01 µM) of the same compound?
A: 82%

Q: And the residual activity (TESK1 (human); compound 0.1 µM)?
A: 29%

Q: And the residual activity (TESK1 (human); compound 1.0 µM)?
A: 16%

Q: What about the residual activity (IRAK1 (human); compound 0.01 µM) of the same compound?
A: 98%

Q: What about the residual activity (IRAK1 (human); compound 0.1 µM) of the same compound?
A: 95%

Q: What about the residual activity (IRAK1 (human); compound 1.0 µM) of the same compound?
A: 95%

Q: And the residual activity (CDK9 CCNT1 (human); compound 0.01 µM)?
A: 104%

Q: And the residual activity (CDK9 CCNT1 (human); compound 0.1 µM)?
A: 87%

Q: And the residual activity (CDK9 CCNT1 (human); compound 1.0 µM)?
A: 95%
